Earlier results in patent US20040157848A1, “Methods and compositions for the treatment of herpes virus infections using cyclooxygenase-2 selective inhibitors or cyclooxygenase-2 inhibitors in combination with antiviral agents” (Pharmacia Corporation, priority 2002, published 2004).

Columns and labels:
herpes virus = conditions: supplementation with exogenous GSH, in vitro
[1] = test system: cytomegalovirus induced reactive oxygen species; conditions: cytomegalovirus infected human smooth muscle

| SMILES | inhibition of the replication of herpes virus (herpes virus) | cytomegalovirus induced reactive oxygen species [1] |
| --- | --- | --- |
| N[C@@H](CCC(=O)N[C@@H](CS)C(=O)NCC(=O)O)C(=O)O [GSH, glutathione] | over 99% | – |
| CC(=O)Oc1ccccc1C(=O)O [aspirin] | – | reduces |
